Assay results from US11931424B2, “Combination MCL-1 inhibitors with anti-body drug conjugates” (Gilead Sciences, Inc., priority 2021, dated 2024).
Counter-ions that a name gives are not always drawn.

Test system: panel of breast cancer cell lines
Assay: Compound A with targeted agents and chemotherapies, 72-hour in vitro proliferation assays
Type: cell-based
Conditions: 72-hour proliferation
[1] = AU565 cell line, compound A × partner
[2] = BT-20 cell line, compound A × partner
[3] = CAL-51 cell line, compound A × partner
[4] = CAL-85-1 cell line, compound A × partner
[5] = CAL-120 cell line, compound A × partner
[6] = CAL-148 cell line, compound A × partner
[7] = CAMA-1 cell line, compound A × partner
[8] = DU-4475 cell line, compound A × partner
[9] = EVSA-T cell line, compound A × partner
[10] = MCF7 cells, Compound A × partner agent

Nc1ccn([C@@H]2O[C@H](CO)[C@@H](O)C2(F)F)c(=O)n1 [Gemcitabine Hydrochloride]
Best CI [1]: 0.56 | Bliss Volume [1]: 10.13 | HSA volume [1]: 3.57 | Loewe Volume [1]: 2.71 | Synergy Score [1]: 9.40 | Best CI [2]: 0.70 | Bliss Volume [2]: 4.35 | HSA volume [2]: 4.94 | Loewe Volume [2]: 3.32 | Synergy Score [2]: 11.12 | Best CI [3]: 0.47 | Bliss Volume [3]: 3.26 | HSA volume [3]: 3.22 | Loewe Volume [3]: 3.49 | Synergy Score [3]: 5.10 | Best CI [4]: 0.58 | Bliss Volume [4]: 9.98 | HSA volume [4]: 8.91 | Loewe Volume [4]: 7.81 | Synergy Score [4]: 10.96 | Best CI [5]: 0.21 | Bliss Volume [5]: −5.00 | HSA volume [5]: −5.87 | Loewe Volume [5]: −4.98 | Synergy Score [5]: 0.88 | Best CI [6]: 0.36 | Bliss Volume [6]: 19.19 | HSA volume [6]: 20.88 | Loewe Volume [6]: 20.22 | Synergy Score [6]: 35.99 | Best CI [7]: 0.06 | Bliss Volume [7]: 26.55 | HSA volume [7]: 18.50 | Loewe Volume [7]: 18.89 | Synergy Score [7]: 40.36 | Bliss Volume [8]: −3.76 | HSA volume [8]: −3.58 | Loewe Volume [8]: −2.68 | Synergy Score [8]: 0.17 | Best CI [9]: 1.07 | Bliss Volume [9]: 9.65 | HSA volume [9]: 2.02 | Loewe Volume [9]: 1.29 | Synergy Score [9]: 5.11 | Best CI (HCC38, compound A × partner): 0.51 | Bliss Volume (HCC38, compound A × partner): 21.72 | HSA volume (HCC38, compound A × partner): 8.18 | Loewe Volume (HCC38, compound A × partner): 6.75 | Synergy Score (HCC38, compound A × partner): 14.50 | Best CI (HCC70, compound A × partner): 0.26 | Bliss Volume (HCC70, compound A × partner): 18.66 | HSA volume (HCC70, compound A × partner): 18.52 | Loewe Volume (HCC70, compound A × partner): 17.52 | Synergy Score (HCC70, compound A × partner): 26.37 | Best CI (HCC1143, compound A × partner): 0.15 | Bliss Volume (HCC1143, compound A × partner): 4.32 | HSA volume (HCC1143, compound A × partner): 8.39 | Loewe Volume (HCC1143, compound A × partner): 7.81 | Synergy Score (HCC1143, compound A × partner): 9.41 | Best CI (HCC1569, compound A × partner): 0.68 | Bliss Volume (HCC1569, compound A × partner): 3.74 | HSA volume (HCC1569, compound A × partner): 6.80 | Loewe Volume (HCC1569, compound A × partner): 6.28 | Synergy Score (HCC1569, compound A × partner): 5.52 | Best CI (HCC1806, compound A × partner): 0.13 | Bliss Volume (HCC1806, compound A × partner): 17.89 | HSA volume (HCC1806, compound A × partner): 18.06 | Loewe Volume (HCC1806, compound A × partner): 17.74 | Synergy Score (HCC1806, compound A × partner): 30.81 | Best CI (HCC1937, compound A × partner): 0.45 | Bliss Volume (HCC1937, compound A × partner): 2.34 | HSA volume (HCC1937, compound A × partner): 0.77 | Loewe Volume (HCC1937, compound A × partner): 2.36 | Synergy Score (HCC1937, compound A × partner): 2.33 | Best CI (HCC1954, compound A × partner): 0.28 | Bliss Volume (HCC1954, compound A × partner): 3.78 | HSA volume (HCC1954, compound A × partner): 5.17 | Loewe Volume (HCC1954, compound A × partner): 5.09 | Synergy Score (HCC1954, compound A × partner): 7.13 | Best CI (HCC2218, compound A × partner): 0.36 | Bliss Volume (HCC2218, compound A × partner): 5.46 | HSA volume (HCC2218, compound A × partner): 4.02 | Loewe Volume (HCC2218, compound A × partner): 2.80 | Synergy Score (HCC2218, compound A × partner): 6.54 | Best CI (HDQ-P1, compound A × partner): 0.40 | Bliss Volume (HDQ-P1, compound A × partner): −3.49 | HSA volume (HDQ-P1, compound A × partner): −0.19 | Loewe Volume (HDQ-P1, compound A × partner): 0.42 | Synergy Score (HDQ-P1, compound A × partner): 2.05 | Best CI (HMC-1-8, compound A × partner): 0.19 | Bliss Volume (HMC-1-8, compound A × partner): 24.97 | HSA volume (HMC-1-8, compound A × partner): 9.34 | Loewe Volume (HMC-1-8, compound A × partner): 8.40 | Synergy Score (HMC-1-8, compound A × partner): 17.19 | Best CI (JIMT-1, compound A × partner): 0.05 | Bliss Volume (JIMT-1, compound A × partner): 4.37 | HSA volume (JIMT-1, compound A × partner): 3.74 | Loewe Volume (JIMT-1, compound A × partner): 3.50 | Synergy Score (JIMT-1, compound A × partner): 1.80 | Synergy Score [10]: 11.61

CN(C)C(=O)c1cc2cnc(Nc3ccc(N4CCNCC4)cn3)nc2n1C1CCCC1 [LEE011]
Best CI [1]: 1.01 | Bliss Volume [1]: −1.41 | HSA volume [1]: −6.50 | Loewe Volume [1]: −4.57 | Synergy Score [1]: 1.58 | Best CI [2]: 0.78 | Bliss Volume [2]: −2.26 | HSA volume [2]: −1.79 | Loewe Volume [2]: −2.17 | Synergy Score [2]: 2.30 | Best CI [3]: 0.77 | Bliss Volume [3]: −1.68 | HSA volume [3]: −1.56 | Loewe Volume [3]: −1.27 | Synergy Score [3]: 0.34 | Best CI [4]: 0.64 | Bliss Volume [4]: −5.58 | HSA volume [4]: −9.15 | Loewe Volume [4]: −7.95 | Synergy Score [4]: 0.23 | Best CI [5]: 0.62 | Bliss Volume [5]: −1.14 | HSA volume [5]: −5.68 | Loewe Volume [5]: −5.28 | Synergy Score [5]: 0.15 | Best CI [6]: 0.86 | Bliss Volume [6]: −4.27 | HSA volume [6]: −5.99 | Loewe Volume [6]: −4.10 | Synergy Score [6]: 0.81 | Best CI [7]: 0.73 | Bliss Volume [7]: −3.85 | Loewe Volume [7]: −6.51 | Synergy Score [7]: 1.09 | Best CI [8]: 0.47 | Bliss Volume [8]: 1.64 | HSA volume [8]: 0.20 | Loewe Volume [8]: 1.04 | Synergy Score [8]: 0.98 | Best CI [9]: 0.63 | Bliss Volume [9]: −0.43 | HSA volume [9]: −2.18 | Synergy Score [9]: 0.34 | Best CI (HCC38, compound A × partner): 0.44 | Bliss Volume (HCC38, compound A × partner): −4.85 | HSA volume (HCC38, compound A × partner): −8.61 | Loewe Volume (HCC38, compound A × partner): −9.77 | Synergy Score (HCC38, compound A × partner): 1.12 | Best CI (HCC70, compound A × partner): 0.93 | Bliss Volume (HCC70, compound A × partner): −0.15 | HSA volume (HCC70, compound A × partner): 0.16 | Loewe Volume (HCC70, compound A × partner): 0.49 | Synergy Score (HCC70, compound A × partner): 6.12 | Bliss Volume (HCC1143, compound A × partner): −3.25 | HSA volume (HCC1143, compound A × partner): −7.75 | Loewe Volume (HCC1143, compound A × partner): −9.95 | Synergy Score (HCC1143, compound A × partner): 1.30 | Best CI (HCC1569, compound A × partner): 0.47 | Bliss Volume (HCC1569, compound A × partner): 5.70 | HSA volume (HCC1569, compound A × partner): 1.89 | Loewe Volume (HCC1569, compound A × partner): 5.08 | Synergy Score (HCC1569, compound A × partner): 3.87 | Best CI (HCC1806, compound A × partner): 0.56 | Bliss Volume (HCC1806, compound A × partner): −3.98 | HSA volume (HCC1806, compound A × partner): −8.72 | Loewe Volume (HCC1806, compound A × partner): −4.05 | Synergy Score (HCC1806, compound A × partner): 0.65 | Best CI (HCC1937, compound A × partner): 0.74 | Bliss Volume (HCC1937, compound A × partner): 2.31 | HSA volume (HCC1937, compound A × partner): −2.66 | Loewe Volume (HCC1937, compound A × partner): 1.04 | Synergy Score (HCC1937, compound A × partner): 2.13 | Best CI (HCC1954, compound A × partner): 0.72 | Bliss Volume (HCC1954, compound A × partner): −0.75 | Loewe Volume (HCC1954, compound A × partner): −1.17 | Synergy Score (HCC1954, compound A × partner): 4.48 | Best CI (HCC2218, compound A × partner): 0.73 | Bliss Volume (HCC2218, compound A × partner): −5.40 | HSA volume (HCC2218, compound A × partner): −4.99 | Loewe Volume (HCC2218, compound A × partner): −5.90 | Synergy Score (HCC2218, compound A × partner): 1.69 | Best CI (HDQ-P1, compound A × partner): 0.04 | Bliss Volume (HDQ-P1, compound A × partner): −2.80 | HSA volume (HDQ-P1, compound A × partner): −6.22 | Loewe Volume (HDQ-P1, compound A × partner): −9.02 | Synergy Score (HDQ-P1, compound A × partner): 0.15 | Best CI (HMC-1-8, compound A × partner): 0.81 | Bliss Volume (HMC-1-8, compound A × partner): 9.82 | HSA volume (HMC-1-8, compound A × partner): 5.13 | Loewe Volume (HMC-1-8, compound A × partner): 5.78 | Synergy Score (HMC-1-8, compound A × partner): 9.01 | Best CI (JIMT-1, compound A × partner): 0.00 | Bliss Volume (JIMT-1, compound A × partner): 0.29 | HSA volume (JIMT-1, compound A × partner): −2.46 | Loewe Volume (JIMT-1, compound A × partner): −4.06 | Synergy Score (JIMT-1, compound A × partner): 0.28 | Best CI (KPL-1, compound A × partner): 0.65 | Bliss Volume (KPL-1, compound A × partner): 0.36 | HSA volume (KPL-1, compound A × partner): −0.31 | Synergy Score (KPL-1, compound A × partner): 1.43

CS(=O)(=O)CCNCc1ccc(-c2ccc3ncnc(Nc4ccc(OCc5cccc(F)c5)c(Cl)c4)c3c2)o1 [Lapatinib Ditosylate]
Best CI [1]: 0.44 | Best CI [2]: 0.18 | Best CI (BT-474 cell line, compound A × partner): 0.02 | Best CI (BT-549 cell line, compound A × partner): 0.45 | Best CI [3]: 1.14 | Best CI [4]: 0.58 | Best CI [5]: 1.36 | Best CI [6]: 0.38 | Best CI [7]: 0.90 | Best CI [8]: 0.65 | Best CI [9]: 0.77 | Best CI (HCC38, compound A × partner): 0.87 | Best CI (HCC70, compound A × partner): 0.35 | Best CI (HCC1143, compound A × partner): 0.54 | Best CI (HCC1569, compound A × partner): 0.53 | Best CI (HCC1806, compound A × partner): 0.74 | Best CI (HCC1937, compound A × partner): 1.22 | Best CI (HCC1954, compound A × partner): 0.07 | Best CI (HCC2218, compound A × partner): 0.02 | Best CI (HDQ-P1, compound A × partner): 0.87 | Best CI (HMC-1-8, compound A × partner): 0.50 | Best CI (JIMT-1, compound A × partner): 0.29 | Best CI (KPL-1, compound A × partner): 0.65 | Best CI [10]: 0.34 | Best CI (MDA-MB-175-VII cells, Compound A × partner agent): 0.32 | Best CI (MDA-MB-231 cells, Compound A × partner agent): 0.77 | Best CI (MDA-MB-361 cells, Compound A × partner agent): 0.87 | Best CI (MDA-MB-436 cells, Compound A × partner agent): 0.51 | Best CI (MDA-MB-453 cells, Compound A × partner agent): 0.45 | Best CI (MDA-MB-468 cells, Compound A × partner agent): 0.36 | Best CI (SK-BR-3 cells, Compound A × partner agent): 0.15 | Best CI (SUM159PT cells, combination of compound A with the named agent): 1.37 | Best CI (T47D cells, combination of compound A with the named agent): 0.41 | Best CI (ZR-75-1 cells, combination of compound A with the named agent): 0.73 | Best CI (ZR-75-30 cells, combination of compound A with the named agent): 0.31
